Like-named read-outs stand apart in the source and are kept apart here.
Experiments:
α1A adrenoceptor = biological target: T1, α1A adrenoceptor (Homo sapiens, UniProt P35348); assay: α1A adrenoceptor radioligand binding (CEREP)
T1 construct: purchased CEREP, France (external assay service) 2338
T1 sequence (P35348 1-466): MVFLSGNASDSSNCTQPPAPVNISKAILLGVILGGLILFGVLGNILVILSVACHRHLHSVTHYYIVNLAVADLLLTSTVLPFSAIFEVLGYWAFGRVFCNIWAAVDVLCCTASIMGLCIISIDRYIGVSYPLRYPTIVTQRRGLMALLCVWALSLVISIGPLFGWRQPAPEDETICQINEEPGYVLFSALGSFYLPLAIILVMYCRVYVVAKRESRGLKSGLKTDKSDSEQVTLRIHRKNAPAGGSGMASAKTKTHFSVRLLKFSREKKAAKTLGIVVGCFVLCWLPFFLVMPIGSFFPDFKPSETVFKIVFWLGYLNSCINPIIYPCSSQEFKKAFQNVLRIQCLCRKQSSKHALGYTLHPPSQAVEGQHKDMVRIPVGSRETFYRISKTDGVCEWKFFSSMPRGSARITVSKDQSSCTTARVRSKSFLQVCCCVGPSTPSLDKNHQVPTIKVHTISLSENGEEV
Method: (§1) An in vitro pharmacological profiling panel was specifically designed for the detection of potential high- risk clinical adverse drug reactions. The panel comprised of 26 diverse targets (6 enzymes, 2 transporters, 9 G-protein-coupled receptors (GPCRs), 5 ion channels along with hERG, M2, alpha1A and AchE) and was conduced externally by CEREP, France […]. […] Detailed methodology for in vitro pharmacological profiling assays provided by CEREP can be found at http://www.cerep.fr, with specific reference to the AChE (cat. no. 0363), Muscarinic M1 receptor (cat. no. 0091) and Adrenergic α1A receptor (cat. no. 2338) assays. For enzyme and kinase assays, the results were expressed as a percent inhibition of control-specific activity obtained in the presence of the test compound. The IC50 values (concentration causing a half-maximal inhibition of control-specific activity) and Hill coefficients (nH) were determined by nonlinear regression analysis of the inhibition/concentration–response curves using Hill equation curve fitting as described earlier.
(§2) For radioligand binding assays, the results are expressed as % inhibition of control-specific binding obtained in the presence of the test compounds. The IC50 values (concentration causing a half-maximal inhibition of control-specific binding) and Hill coefficients (nH) were determined by nonlinear regression analysis of the competition curves generated with mean replicate values using Hill equation curve fitting. The inhibition constants (Ki) were subsequently calculated by applying the Cheng Prusoff equation[38].

Enzyme [1] = assay: Secondary pharmacology panel, target #15
Method: (§3) For enzyme and kinase assays, the results were expressed as a percent inhibition of control-specific activity obtained in the presence of the test compound. The IC50 values (concentration causing a half-maximal inhibition of control-specific activity) and Hill coefficients (nH) were determined by nonlinear regression analysis of the inhibition/concentration–response curves using Hill equation curve fitting as described earlier[37].
(§4) For assessment of activity against these targets, compounds were tested in an 8-point
(§5) concentration response covering half-log units up to a top test concentration of 100 µM, and
(§6) an IC50 or Ki determined using either radio ligand binding assays or enzyme activity assays.

Enzyme [2] = assay: Secondary pharmacology panel, target #11
Method: as §3, §4, §5, §6

Ion channel = assay: Secondary pharmacology panel, target #16
Method: (§7) An in vitro pharmacological profiling panel was specifically designed for the detection of potential high- risk clinical adverse drug reactions. […] For enzyme and kinase assays, the results were expressed as a percent inhibition of control-specific activity obtained in the presence of the test compound. The IC50 values (concentration causing a half-maximal inhibition of control-specific activity) and Hill coefficients (nH) were determined by nonlinear regression analysis of the inhibition/concentration–response curves using Hill equation curve fitting as described earlier[37].
as §4, §5, §6

[3] = system: asexual blood stage of Pf; assay: Pf asexual blood stage potency (Pf IC50); format: cell-based, Plasmodium falciparum; conditions: for IC50: Plasmodium falciparum
Excerpt: The TAPs series emerged from a high-throughput screen (HTS) of 500,000 compounds from the AstraZeneca corporate library against the asexual blood stage of Pf using a high-content image-based approach. The procedure for synthesis of compounds 1-6, 10, 11 using a scheme similar to Fig. 1 is provided in Supplementary Note 1. The initial hit provided multiple diversification points for a robust lead optimization campaign. […] Compounds with 2-pyridyl modification at the 2-amino position of pyrimidine core improved potency and solubility at the cost of potent activity against hERG and acetylcholine esterase (AChE; compounds 3-6; Table 1). […] The observed hERG and AChE selectivity improvement with 7 could be attributed to the polar nature of the pyrazole group and its role in reducing the pKa of the core pyrimidine ring. […] To assess the potential for cross-resistance, representative TAPs were screened against a panel of clinical isolates and in vitro-generated mutant strains displaying varying mechanisms of resistance to antimalarial agents currently in use and under development, respectively, (Supplementary Tables 1–3).

GPCR 9 = assay: Secondary pharmacology panel, target #20
Method: as §3
targets (8 enzymes, 5 ion channels, 10 GPCRs and 2 transporters) and hERG.
as §4, §5, §6

GPCR [4] = assay: Secondary pharmacology panel, target #10
Method: as §7, §4, §5, §6

GPCR [5] = assay: Secondary pharmacology panel, target #8
Method: as §7, §4, §5, §6

GPCR [6] = assay: Secondary pharmacology panel, target #26
Method: as §7, §4, §5, §6

Enzyme [7] = assay: Secondary pharmacology panel, target #25
Method: as §3, §4, §5, §6

Transporter [8] = assay: Secondary pharmacology panel, target #14
Method: as §7, §4, §5, §6

Enzyme [9] = assay: Secondary pharmacology panel, target #19
Method: as §3, §4, §5, §6

Enzyme [10] = assay: Secondary pharmacology panel, target #24
Method: as §3, §4, §5, §6

Transporter [11] = assay: Secondary pharmacology panel, target #7
Method: as §7, §4, §5, §6

hERG = biological target: T2, hERG (Homo sapiens, UniProt Q12809); assay: electrophysiology-based hERG assay using IonWorks HT (CHO cells); format: cell-based
T2 construct: expressed in transfected cells; host or cells: CHO cells
T2 sequence (Q12809 whole entry): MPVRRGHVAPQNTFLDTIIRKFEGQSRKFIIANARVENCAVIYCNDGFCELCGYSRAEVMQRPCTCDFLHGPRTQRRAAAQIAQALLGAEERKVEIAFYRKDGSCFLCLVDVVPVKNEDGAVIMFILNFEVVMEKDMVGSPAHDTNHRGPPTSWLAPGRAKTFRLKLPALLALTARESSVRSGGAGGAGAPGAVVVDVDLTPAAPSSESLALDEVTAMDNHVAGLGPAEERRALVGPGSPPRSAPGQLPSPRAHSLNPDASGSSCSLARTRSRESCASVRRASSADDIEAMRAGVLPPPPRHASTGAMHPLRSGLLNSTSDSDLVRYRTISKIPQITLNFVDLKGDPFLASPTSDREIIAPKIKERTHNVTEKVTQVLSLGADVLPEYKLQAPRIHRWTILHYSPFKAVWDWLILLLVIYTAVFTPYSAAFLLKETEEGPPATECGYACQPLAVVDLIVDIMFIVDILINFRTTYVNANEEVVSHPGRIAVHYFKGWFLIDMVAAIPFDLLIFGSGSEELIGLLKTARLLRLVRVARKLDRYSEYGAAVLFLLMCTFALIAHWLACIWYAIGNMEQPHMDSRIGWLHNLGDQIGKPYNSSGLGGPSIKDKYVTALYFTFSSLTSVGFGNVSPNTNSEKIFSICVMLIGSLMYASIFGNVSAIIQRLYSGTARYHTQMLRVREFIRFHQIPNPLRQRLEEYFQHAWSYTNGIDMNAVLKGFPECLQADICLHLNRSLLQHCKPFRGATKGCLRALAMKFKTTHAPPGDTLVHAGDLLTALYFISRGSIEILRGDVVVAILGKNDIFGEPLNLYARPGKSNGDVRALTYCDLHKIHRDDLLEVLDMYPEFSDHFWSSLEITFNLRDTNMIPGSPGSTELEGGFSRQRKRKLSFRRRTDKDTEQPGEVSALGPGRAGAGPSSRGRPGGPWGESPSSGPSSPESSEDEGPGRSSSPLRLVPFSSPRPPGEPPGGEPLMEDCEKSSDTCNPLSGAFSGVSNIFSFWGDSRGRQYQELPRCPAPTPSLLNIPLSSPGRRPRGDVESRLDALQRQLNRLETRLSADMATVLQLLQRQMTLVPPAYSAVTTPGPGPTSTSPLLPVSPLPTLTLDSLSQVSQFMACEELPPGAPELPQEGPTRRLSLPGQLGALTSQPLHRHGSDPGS
Method: hERG IC50 was determined in an electrophysiology-based hERG assay using IonWorks HT (CHO cells) as described earlier.

Muscarinic M2 receptor = biological target: T3, Muscarinic M2 receptor (Homo sapiens, UniProt P08172); assay: Muscarinic M2 receptor radioligand binding (CEREP)
T3 construct: purchased CEREP, France (external assay service)
T3 sequence (P08172 1-466): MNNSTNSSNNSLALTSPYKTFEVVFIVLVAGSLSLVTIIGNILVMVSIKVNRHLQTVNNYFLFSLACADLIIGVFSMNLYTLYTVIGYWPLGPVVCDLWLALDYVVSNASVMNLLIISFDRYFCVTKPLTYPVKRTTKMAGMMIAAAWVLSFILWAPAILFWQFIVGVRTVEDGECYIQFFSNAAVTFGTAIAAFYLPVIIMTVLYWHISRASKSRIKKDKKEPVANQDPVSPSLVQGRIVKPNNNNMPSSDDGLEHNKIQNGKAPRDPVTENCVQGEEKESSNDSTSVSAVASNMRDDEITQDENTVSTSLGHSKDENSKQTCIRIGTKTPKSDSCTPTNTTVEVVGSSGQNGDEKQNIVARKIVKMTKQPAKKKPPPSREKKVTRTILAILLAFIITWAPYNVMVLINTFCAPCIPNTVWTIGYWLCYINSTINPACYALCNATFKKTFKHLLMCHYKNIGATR
Method: as §1, §2

GPCR [12] = assay: Secondary pharmacology panel, target #13
Method: as §7, §4, §5, §6

[13] = Target #18, hERG, read-out: Binding Ki / Enzyme IC50

SMILES	IC50 (α1A adrenoceptor) [µM]	Ki (α1A adrenoceptor) [µM]	Binding Ki / Enzyme IC50 (Enzyme [1]) [µM]	Binding Ki / Enzyme IC50 (Enzyme [2]) [µM]	Binding Ki / Enzyme IC50 (Ion channel) [µM]	IC50 [3] [µM]	Binding Ki / Enzyme IC50 (GPCR 9) [µM]	Binding Ki / Enzyme IC50 (GPCR [4]) [µM]	Binding Ki / Enzyme IC50 (GPCR [5]) [µM]	Binding Ki / Enzyme IC50 (GPCR [6]) [µM]	Binding Ki / Enzyme IC50 (Enzyme [7]) [µM]	Binding Ki / Enzyme IC50 (Transporter [8]) [µM]	Binding Ki / Enzyme IC50 (Enzyme [9]) [µM]	Binding Ki / Enzyme IC50 (Enzyme [10]) [µM]	Binding Ki / Enzyme IC50 (Transporter [11]) [µM]	IC50 (hERG; [13]) [µM]	IC50 (hERG; hERG IC50) [µM]	IC50 (Muscarinic M2 receptor) [µM]	Ki (Muscarinic M2 receptor) [µM]	Binding Ki / Enzyme IC50 (GPCR [12]) [µM]	other results
Cc1cc(Nc2ncc(N3CCN(C)CC3)c(N3CCCC3)n2)ccn1 [compound 2]	3.1	1.46	13	> 100	33.2	0.6	> 100	8.42	4.735	> 100	> 100	31.45	> 100	> 100	17.1	85.02	85	1.6	1.1	38.7	Selectivity ratio for α1A (IC50 / blood Cmin at ED90 in the Pf/SCID model) (α1A adrenoceptor): < 1; Selectivity ratio for M2 (IC50 / blood Cmin at ED90 in the Pf/SCID model) (Muscarinic M2 receptor): < 1
Cc1nc(Nc2ncc(N3CCN(C)[C@H](C)C3)c(Nc3cc(C)n(C)n3)n2)cc(C2CC2)c1F [compound 12, (R)-N2-(4-cyclopropyl-5-fluoro-6-methylpyridin-2-yl)-N4-(1,5-dimethyl-1H-pyrazol-3-yl)-5-(3,4-dimethylpiperazin-1-yl)pyrimidine-2,4-diamine]	1.2	0.604	11.6	4.29	> 100	0.009	> 100	> 100	> 100	> 100	> 100	10.1	14.5	> 100	3.85	35.9	33	2	1.05	11.5	improvement in Pf potency ([3]; compound 12 versus compound 2): > 60 fold; selectivity ratio (hERG; human, CHO cells that express hERG, relative to Pf potency, read-out: selectivity against hERG): > 1000

From article PMC4389225, “Triaminopyrimidine is a fast-killing and long-acting antimalarial clinical candidate” (Nature Communications, 2015)
